Data reported in patent publication US20240408194A1, “DNA ORIGAMI SUBUNIT VACCINE FOR PREVENTION OF SARS-CoV-2 VARIANT INFECTION” (priority 2021, published 2024).
“Also recorded” adds a separate entry of the source.

Test system: spike and variants
Assay type: binding, SARS-COV-2

LCB1
binding affinity for spike and variants: up to picomolar; also recorded: high affinity
